Test results taken from patent publication US8871735B2, “Methods and compositions for providing cardiac protection” (University of Medicine and Dentistry of New Jersey, priority 2008, dated 2014).
Each block holds one compound with its values, some of them ahead of it.

Tests used:
AC = experiment: cAMP production in membrane preparations from mouse heart; assay type: biochemical; details: 50 μM forskolin, 10 μM drug
Protocol: Such membrane permeability was examined using whole cell, which is addressed in FIG. 11b). cAMP production was measured with 50 μM forskolin in the presence or absence of 10 μM of the indicated drugs. n=2. (b) cAMP accumulation is shown in H9C2 cells. […] Ara-Ade (Adenine 9-β-D-arabinofuranoside) is an anti-herpes simplex drug. Fludarabine ((+)-2-Fluoro-9-(5-O-phosphono-β-D-arabinofuranosyl)-9H-purin-6-amine) and Cladribine (2-chloro-2′-deoxyadenosine) are anti-cancer drugs, Adefovir (Bis(2,2-dimethylpropanoyloxymethyl)[2-(6-amino-9H-purin-9-yl)ethoxymethyl]phosphonate) and Zidovudine are anti-HIV drugs. Zidovudine-TP is a metabolite of zidovudine which inhibits virus replication. TP; triphosphate. 3-Deazaadenosine, Formycin A (7-Amino-3-(β-D-ribofuranosyl)-1H-pyrazolo[4,3-d]pyrimidine), 2-Far (2-Fluoroadenosine), formycin A ((2S,3R,4S,5R)-2-(7-amino-2H-pyrazolo[5,4-e]pyramidin-3-yl-5-(hydroxymeth-yl)oxolane-3,4-diol), 2-FD (2-Fluoro-2′-deoxyadenosine) and 2′5′ ddAdo (2′5′-dideoxyadenosine) are experimental drugs.
Various compounds with adenine-like backbone structure were screened because this structure is essential for both AC inhibition and plasma membrane permeability. Drug effects on AC activity was examined by using membrane preparations from mouse heart and striatum, in which AC5 provides 20% and 80% of total AC activity, respectively. […]

H9C2 cells = experiment: cAMP accumulation in H9C2 cells; assay type: cell-based; details: 5 μM ISO, 3 minutes, 10 μM drug
Text: […] Fludarabine ((+)-2-Fluoro-9-(5-O-phosphono-β-D-arabinofuranosyl)-9H-purin-6-amine) and Cladribine (2-chloro-2′-deoxyadenosine) are anti-cancer drugs, Adefovir (Bis(2,2-dimethylpropanoyloxymethyl)[2-(6-amino-9H-purin-9-yl)ethoxymethyl]phosphonate) and Zidovudine are anti-HIV drugs. Zidovudine-TP is a metabolite of zidovudine which inhibits virus replication. TP; triphosphate. 3-Deazaadenosine, Formycin A (7-Amino-3-(β-D-ribofuranosyl)-1H-pyrazolo[4,3-d]pyrimidine), 2-Far (2-Fluoroadenosine), formycin A ((2S,3R,4S,5R)-2-(7-amino-2H-pyrazolo[5,4-e]pyramidin-3-yl-5-(hydroxymeth-yl)oxolane-3,4-diol), 2-FD (2-Fluoro-2′-deoxyadenosine) and 2′5′ ddAdo (2′5′-dideoxyadenosine) are experimental drugs.
(§1) Mice were anesthetized with 2.5% tribromoethanol (0.010 to 0.015 mL per gram of body weight) injected intraperitoneally, and echocardiography was performed with ultrasonography (ACUSON Sequoia C256, Siemens Medical Solutions, Malvern, Pa.). For acute injection of isoproterenol, forskolin and milrinon, a PE-10 catheter was inserted into the right jugular vein, and drugs were injected at the rate of 1 μl/s. cAMP accumulation assay in H9C2 cells, a cardiac myoblast cell line, was examined as previously described.

[1] = test system: C57Bl/6 mice motor function; experiment: Rotarod performance test and pole test; assay type: in vivo, mouse; details: Ara-Ade by mini-osmotic pump; MPTP 30 mg/kg i.p. daily for 5 days
Protocol: In C57Bl/6 mice, Ara-Ade was chronically infused with an osmotic mini-pump at the indicated doses for 5 days. a) Each mouse was placed on a rod subjected to evaluate Rotarod performance. Mice were left for 1 min on the rod for habituation. The rod rotated gradually increasing from 4 to 40 rpm over the course of 5 min, and the time that mice could stay without failing was recorded. Five trials were conducted for each individual 10-25 min apart. As a positive control, 1-methyl 4-phenyl 1,2,3,6-tetrahydropyridine (MPTP) was intraperitoneally injected for the indicated dose for 5 days. *, p<0.01 relative to vehicle. #, p<0.05 relative to vehicle. n=6-7. b) To evaluate bradykinesia, a pole test was performed. Mice were placed head upward on the top of a rough surfaced pole that was wrapped with gauze to prevent slipping. The time until the mouse turned completely downward (open bars, TTURN) and the time until it climbed down to the floor (closed bars, TLA) were measured.
Four days after the implantation, Rotarod performance test and pole test were examined as previously described. For MPTP injection (1-methyl 4-phenyl 1,2,3,6-tetrahydropyridine), mice were injected intraperitoneally (i.p.) with 0.1 mL of PBS or MPTP dissolved in PBS at 24-hour intervals for 5 days. The daily dose of MPTP was 30 mg/kg. […]

cardiac myocytes [2] = details: cited from earlier work
AC5 [3] = details: cited from earlier work
AC5 [4] = target: T1, AC5 (UniProt P30803); experiment: AC inhibition, recombinant AC proteins: AC5; assay type: biochemical; details: recombinant AC proteins; read-out: IC50 AC5
T1 construct: IC50 AC5; other: recombinant AC proteins; other: THFA: in the presence of Gs-α/GTPαS/forskolin

AC5 [5] = experiment: AC inhibition, recombinant AC proteins: AC5; assay type: biochemical
AC2 [6] = target: AC2 (UniProt P26769); experiment: AC inhibition, recombinant AC proteins: AC2; assay type: biochemical
cardiac myocytes [7] = experiment: ISO-stimulated cAMP accumulation in cultured cardiac myocytes; assay type: cell-based, mouse; details: 10 μM compound
cardiac myocytes [8] = experiment: ISO-induced apoptosis in cultured cardiac myocytes (DNA fragmentation ELISA); assay type: cell-based; details: 100 μM ISO, 48 h
cardiac myocytes [9] = experiment: ISO-induced cell contraction in cultured cardiac myocytes; assay type: cell-based; details: 10 μM
AC3 = target: T2, AC3 (Rattus norvegicus, UniProt P21932); experiment: AC inhibition, recombinant AC proteins: AC3; assay type: biochemical
T2 construct: made in house

AC2 [10] = details: previously noted; cited from earlier work
mice = experiment: Basal cardiac function (echocardiography) under chronic drug infusion alone; assay type: in vivo, mouse; details: chronic infusion of drug alone (3 days to 1 week)
Text: (§2) ISO with or without AC5 inhibitors were chronically infused with osmotic mini-pump implanted subcutaneously at indicated doses for 1 week in c57Bl/6 mice. Mice were then subjected to echocardiography (a) and the hearts were removed and subjected to pathological examinations such as myocardial apoptosis (b) and fibrosis (c). n=4-8.
(§3) In C57Bl/6 mice, ISO with or without AC5 inhibitors or metoprolol were chronically infused with an osmotic mini-pump at the indicated doses for 1 week. Mice were then subjected to echocardiography (a) and heart tissue were subjected to a myocardial apoptosis assay (b). *, p<0.01 vs vehicle. #, p<0.05 vs vehicle. .dagger., p<0.01 vs ISO. .dagger-dbl., p<0.05 vs ISO. n=4-15. […] Comparisons between multiple groups were made using ANOVA with post-hoc tests.
as §1, with “described. […]” for “described.”

[11] = test system: C57Bl/6 mice, chronic ISO infusion; experiment: Chronic ISO infusion heart failure model; assay type: in vivo, mouse; details: for ISO-induced decrease in LVEF (and FS): ISO 60 mg/kg/d 7 days, Ara-Ade 20 and 100 mg/kg/day, 2′5′ ddAdo 20 mg/kg/day
Text: as §2, §3
Tenofovir diphosphate (PMPA-PP), zidovudine monophosphate (MP), zidovudine diphosphate (PP), zidovudine triphosphate (TP), famciclovir penciclovir and valaciclovir were purchased from Moravek. Formycin A (FMA) and Formycin B (FMB) were purchased from Berry and Associates. All other reagents were from Sigma unless specified. Long-term infusion of isoproterenol (Sigma, St. Louis, Mo.) was performed for 7 days at a dose of 60 mg/kg/d with or without AC5 inhibitors by using a miniosmotic pump (ALZET model 2001, DURECT Corp, Cupertino, Calif.). Control mice received vehicle in pumps. Pumps were removed 24 hours before biochemical and physiological studies. Experiments were performed in 3- to 5-month-old male C57Bl/6, and in AC5Tg transgenic mice. This study was approved by the Animal Care and Use Committee at New Jersey Medical School.
as §1

[12] = test system: isolated perfused rat hearts; details: cited from earlier work
patients = details: BHAT; cited from earlier work

T2 sequence (P21932 whole entry): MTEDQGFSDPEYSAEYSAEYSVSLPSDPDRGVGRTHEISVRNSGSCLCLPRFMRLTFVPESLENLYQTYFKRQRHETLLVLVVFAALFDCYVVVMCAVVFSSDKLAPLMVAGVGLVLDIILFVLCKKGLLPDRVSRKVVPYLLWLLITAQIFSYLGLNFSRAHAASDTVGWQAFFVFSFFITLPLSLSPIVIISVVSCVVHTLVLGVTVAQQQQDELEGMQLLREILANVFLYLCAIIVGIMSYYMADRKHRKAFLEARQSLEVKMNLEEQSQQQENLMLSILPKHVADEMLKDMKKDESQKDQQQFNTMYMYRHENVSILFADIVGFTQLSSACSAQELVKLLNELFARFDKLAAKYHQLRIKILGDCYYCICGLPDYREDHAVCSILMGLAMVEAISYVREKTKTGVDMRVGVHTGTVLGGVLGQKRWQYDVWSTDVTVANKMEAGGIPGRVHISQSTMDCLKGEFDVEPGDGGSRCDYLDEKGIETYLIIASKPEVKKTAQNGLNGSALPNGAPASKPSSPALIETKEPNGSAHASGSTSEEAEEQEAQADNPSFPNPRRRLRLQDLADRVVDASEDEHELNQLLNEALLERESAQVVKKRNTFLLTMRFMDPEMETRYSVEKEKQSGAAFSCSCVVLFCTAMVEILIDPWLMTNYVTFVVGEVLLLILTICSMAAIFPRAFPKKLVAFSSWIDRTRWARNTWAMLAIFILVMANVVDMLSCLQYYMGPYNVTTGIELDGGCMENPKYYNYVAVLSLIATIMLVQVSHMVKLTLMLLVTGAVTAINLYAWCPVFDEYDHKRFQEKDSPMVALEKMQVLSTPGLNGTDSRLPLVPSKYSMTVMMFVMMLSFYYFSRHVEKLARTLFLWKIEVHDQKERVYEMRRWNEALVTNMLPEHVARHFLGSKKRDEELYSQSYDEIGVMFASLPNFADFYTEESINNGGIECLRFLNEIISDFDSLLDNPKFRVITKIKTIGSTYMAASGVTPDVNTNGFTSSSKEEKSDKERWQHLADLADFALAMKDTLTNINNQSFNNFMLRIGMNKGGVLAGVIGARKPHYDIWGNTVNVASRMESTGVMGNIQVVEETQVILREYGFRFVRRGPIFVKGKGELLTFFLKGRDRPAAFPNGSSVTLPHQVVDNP

Structure (SMILES): Nc1nccc2c1ncn2[C@@H]1O[C@H](CO)[C@@H](O)[C@H]1O [3-deazaadenosine, 3-Deazaadenosine]
ratio of inhibition between the heart membrane and the striatum membrane (AC): less than one
inhibition of cAMP accumulation in H9C2 cells (H9C2 cells): little inhibition

Structure (SMILES): CN1CC=C(c2ccccc2)CC1 [MPTP, 1-methyl 4-phenyl 1,2,3,6-tetrahydropyridine]
Rotarod and pole test performance [1]: significantly impaired

Structure (SMILES): Nc1ncc2c(n1)CC(c1ccco1)CC2=O (stereo not drawn) [NKY80, 2-amino-7-(2-furanyl)-7,8-dihydro-5(6H)-quinazoline]
inhibition of cAMP accumulation in cultured cardiac myocytes (cardiac myocytes [2]): did not inhibit cAMP accumulation
inhibition of purified AC5 protein in vitro (AC5 [3]): moderate inhibition

IC50 (AC5 [4]): 0.32 µM
IC50 (AC2 [6]): 65.3 µM
IC50 (AC3): 11.1 µM
Structure (SMILES): Nc1ncnc2c1ncn2C1CCC(C(=O)NO)C1 (stereo not drawn) [PMC-6]
Selectivity ratio for AC5, AC5/AC2 (AC5 [5]; ratio of IC50 for AC5 to that for AC2): 0.0049
Selectivity ratio for AC5, AC5/AC3 (AC5 [5]; ratio of IC50 for AC5 to that for AC3): 0.029
decrease in ISO-induced cAMP production / accumulation in cultured cardiac myocytes (cardiac myocytes [7]): 50%
ISO-induced apoptosis in cultured cardiac myocytes (cardiac myocytes [8]): abolished
inhibition of ISO-induced cell contraction (cardiac myocytes [9]): did not inhibit

Structure (SMILES): Nc1ncnc2c1ncn2C1CCCO1 (stereo not drawn) [THFA, 9-(tetrahydro-2-furyl)adenine]
selectivity ratio between AC5 and AC2 (AC5 [5]): 130
selectivity ratio between AC6 and AC2 (AC2 [10]): 1.8

basal LVEF (mice): decreased
Structure (SMILES): COCCc1ccc(OCC(O)CNC(C)C)cc1 (stereo not drawn) [metoprolol]
ISO-induced decrease in LVEF (and FS) [11]: attenuated ISO-induced cardiac dysfunction
ISO-induced decrease in LVEF (and FS) ([11]; listed as Metoprolol): rescued ISO-induced LVEF decrease
HR decreased by chronic ISO ([11]; chronic ISO infusion): rescue decreased HR
ISO-induced myocardial apoptosis in vivo ([11]; chronic ISO infusion): to a lesser degree than Ara-Ade
ISO-induced wall thickening (DESP, DPW) ([11]; chronic ISO infusion): did not show significant increase

Structure (SMILES): CC(C)NCC(O)COc1cccc2ccccc12 (stereo not drawn) [propranolol]
arrhythmia in low flow perfusion / NE model [12]: effectively reduced arrhythmia
decrease of sudden cardiac death, patients with a history of HF (patients): 47%
decrease of sudden cardiac death, patients with a history of MI (patients): 28%
